Reference: patent US6451804B1, “Heteroalkylamino-substituted bicyclic nitrogen heterocycles” (Syntex (U.S.A.) LLC, priority 1999, dated 2002)
Structures can show the parent of a compound that is named as a salt.

Compound | melting point
C[C@@H](CO)Nc1ncc2c(n1)N(C1CCNCC1)C(=O)N(c1ccccc1Cl)C2 (as salt: hydrochloride) | 244 to 248 °C
Cc1ccccc1N1Cc2cnc(NC3CCN(Cc4ccccc4)CC3)nc2N(C)C1=O (as salt: hydrochloride) [Compound 2-9, 7-(1-benzylpiperidin-4-ylamino)-1-methyl-3-ortho-tolyl-3,4-dihydropyrimido[4,5-d]pyrimidin-2(1H)-one] | 253 to 253.9 °C
Cc1ccccc1N1Cc2cnc(NC3CCN(C[C@@H](O)CO)CC3)nc2N(C)C1=O (as salt: hydrochloride) [Compound 2-14, (R)-7-[1-(2,3-dihydroxypropyl)piperidin-4-ylamino]-1-methyl-3-ortho-tolyl-3,4-dihydropyrimido[4,5-d]pyrimidin-2(1H)-one] | 195 to 208 °C
Cc1ccccc1N1Cc2cnc(NC3CCN(CCC#N)CC3)nc2N(C)C1=O (as salt: hydrochloride) [Compound 2-15, 7-[1-(2-cyanoethyl)-piperidin-4-ylamino]-1-methyl-3-ortho-tolyl-3,4-dihydropyrimido[4,5-d]pyrimidin-2(1H)-one] | 195 to 208.5 °C
CN(C)C(=O)CN1CCC(CNc2ncc3c(n2)NC(=O)N(c2ccccc2Cl)C3)CC1 (as salt: hydrochloride) [Compound 2-19, 3-(2-chlorophenyl)-7-[(1-dimethylaminocarbonylmethylpiperidin-4-ylmethyl)amino]-3,4-dihydropyrimido[4,5-d]pyrimidin-2(1H)-one] | 210.2 to 214.4 °C
N#CCN1CCC(CNc2ncc3c(n2)NC(=O)N(c2ccccc2Cl)C3)CC1 (as salt: hydrochloride) [Compound 2-22, 3-(2-chlorophenyl)-7-[(1-cyanomethylpiperidin-4-ylmethyl)amino]-3,4-dihydropyrimido[4,5-d]pyrimidin-2(1H)-one] | 207.2 to 207.7 °C
NC(=O)CN1CCC(CNc2ncc3c(n2)NC(=O)N(c2ccccc2Cl)C3)CC1 (as salt: hydrochloride) [Compound 2-23, 3-(2-chlorophenyl)-7-[(1-aminocarbonylmethylpiperidin-4-ylmethyl)amino]-3,4-dihydropyrimido[4,5-d]pyrimidin-2(1H)-one] | 229.9 to 232.2 °C
O=C(O)CN1CCC(CNc2ncc3c(n2)NC(=O)N(c2ccccc2Cl)C3)CC1 (as salt: hydrochloride) [Compound 2-24, 3-(2-chlorophenyl)-7-[(1-hydroxycarbonylmethylpiperidin-4-ylmethyl)amino]-3,4-dihydropyrimido[4,5-d]pyrimidin-2(1H)-one] | 215 to 219 °C

Further lines, results first:

melting point | Compound
169.7 to 175.1 °C | CCOCC(COCC)N1C(=O)N(c2ccccc2Cl)Cc2cnc(N[C@H](C)CO)nc21 (as salt: hydrochloride) [Compound 3-21, (R)-3-(2-chlorophenyl)-7-[(2-hydroxy-1-methylethyl)amino]-1-(2-ethoxy-1-ethoxymethylethyl)-3,4-dihydropyrimido[4,5-d]pyrimidin-2(1H)-one]
203.1 to 204.1 °C | CN1C(=O)N(c2ccccc2Cl)Cc2cnc(NC(C)(C)C(O)CO)nc21 (stereo not drawn) (as salt: hydrochloride) [Compound 3-28, 3-(2-chlorophenyl)-7-(2,3-dihydroxy-1,1-dimethylpropylamino)-1-methyl-3,4-dihydropyrimido[4,5-d]pyrimidin-2(1H)-one]
203.7 to 207.8 °C | CN1C(=O)N(c2ccccc2Cl)Cc2cnc(NC3(CO)CCCCC3)nc21 (as salt: hydrochloride) [Compound 3-43, 3-(2-chlorophenyl)-7-[(1-hydroxymethylcyclohexyl)amino]-1-methyl-3,4-dihydropyrimido[4,5-d]pyrimidin-2(1H)-one]
233.4 to 236.3 °C | CN1C(=O)N(c2ccccc2Cl)Cc2cnc(NC3CCC(=O)CC3)nc21 (as salt: hydrochloride) [Compound 3-46, 3-(2-chlorophenyl)-7-(4-oxo-cyclohexylamino)-1-methyl-3,4-dihydropyrimido[4,5-d]pyrimidin-2(1H)-one]
218.5 to 221 °C | O=C1N(c2ccccc2Cl)Cc2cnc(N[C@H]3CC[C@H](O)CC3)nc2N1Cc1ccccc1 (as salt: hydrochloride) [Compound 3-48, 1-benzyl-3-(2-chlorophenyl)-7-(trans-4-hydroxycyclohexylamino)-3,4-dihydropyrimido[4,5-d]pyrimidin-2(1H)-one]
161 to 172 °C | Cc1ccccc1N1Cc2cnc(N[C@H](C)[C@@H](O)CO)nc2NC1=O (as salt: hydrochloride) [Compound 4-4, (R,R)-7-(2,3-dihydroxy-1-methylpropylamino)-3-ortho-tolyl-3,4-dihydropyrimido[4,5-d]pyrimidin-2(1H)-one]
> 300 °C | CC(=O)O[C@H]1CC[C@H](Nc2ncc3c(n2)NC(=O)N(c2ccccc2Cl)C3)CC1 (as salt: hydrochloride) [Compound 4-13, 7-(trans-4-acetyloxycyclohexylamino)-3-(2-chlorophenyl)-3,4-dihydropyrimido[4,5-d]pyrimidin-2(1H)-one]
208.3 to 217.9 °C | O=C1Nc2nc(NCC3CCC(O)CC3)ncc2CN1c1ccccc1Cl (stereo not drawn) (as salt: hydrochloride) [Compound 4-17, 3-(2-chlorophenyl)-7-[(4-hydroxycyclohexylmethyl)amino]-3,4-dihydropyrimido[4,5-d]pyrimidin-2(1H)-one]
> 260 °C | COC(=O)O[C@H]1CC[C@H](Nc2ncc3c(n2)NC(=O)N(c2ccccc2Cl)C3)CC1 (as salt: hydrochloride) [Compound 4-20, 3-(2-chlorophenyl)-7-(trans-4-methoxycarbonyloxycyclohexylamino)-3,4-dihydropyrimido[4,5-d]pyrimidin-2(1H)-one]
267 to 267.6 °C | NC(=O)O[C@H]1CC[C@H](Nc2ncc3c(n2)NC(=O)N(c2ccccc2Cl)C3)CC1 (as salt: hydrochloride) [Compound 4-21, 7-(trans-4-carbamoyloxycyclohexylamino)-3-(2-chlorophenyl)-3,4-dihydropyrimido[4,5-d]pyrimidin-2(1H)-one]
269 to 271 °C | CNC(=O)O[C@H]1CC[C@H](Nc2ncc3c(n2)NC(=O)N(c2ccccc2Cl)C3)CC1 (as salt: hydrochloride) [Compound 4-22, 3-(2-chlorophenyl)-7-(trans-4-methylaminocarbonyloxycyclohexylamino)-3,4-dihydropyrimido[4,5-d]pyrimidin-2(1H)-one]
204 to 210 °C | O=C1CCC(Nc2ncc3c(n2)NC(=O)N(c2ccccc2Cl)C3)CC1 (as salt: hydrochloride) [Compound 4-23, 3-(2-chlorophenyl)-7-(4-oxo-cyclohexylamino)-3,4-dihydropyrimido[4,5-d]pyrimidin-2(1H)-one]
173.6 to 189.7 °C | O=C1Nc2nc(NC3CCC4(CC3)OCCO4)ncc2CN1c1ccccc1Cl (as salt: hydrochloride) [Compound 4-24, 3-(2-chlorophenyl)-7-(1,4-dioxaspiro[4.5]dec-8-ylamino)-3,4-dihydropyrimido[4,5-d]pyrimidin-2(1H)-one]
